Measured values reported in patent US20070203112A1, “BLADDER CANCER TREATMENT AND METHODS” (priority 2006, published 2007).

Tested on: DLD-1 multicell layers
Test: Penetration of EO9 through DLD-1 multicell layers (transwell apparatus, HPLC)
Type: in vitro ADME, human
Method: The cell line used in this study was DLD-1 human colon adenocarcinoma cells which was selected because of its ability to form tight junctions between cells thereby forming a continuous ‘barrier’ across which the drug must cross. To assess drug penetration, drugs were added to the top chamber and the concentration of drug in the bottom chamber was determined over a range of time intervals.
DLD-1 cells (2.5×10^5 in 200 μl of medium) were added to the top chamber and allowed to settle and attach to the membrane for approximately 3 hours at 37° C. in a CO2 enriched (5%) atmosphere. Once cells attached, the transwell was inserted into one well of a 24 well plate and 600 μl media was added to the bottom chamber. The apparatus was then incubated at 37° C. for 4 days with daily media changes to both the upper and lower chamber. […] For each assay, 3 transwells were removed for histological examination and accurate determination of thickness and integrity (see below for details).
Throughout all procedures, the media used was as described above except for the fact that phenol red free media was used (phenol red elutes very close to EO9 on the chromatograms). EO9 was added to the top chamber at t=0 in a volume of 100 μl and the bottom chamber contained 600 μl of media (constantly stirred). […]

SMILES: Cn1c(/C=C/CO)c(CO)c2c1C(=O)C=C(N1CC1)C2=O [EO9, 3-hydroxymethyl-5-aziridinyl-1-methyl-2-(1H-indole-4,7-dione)-propenol]
- multicell layer penetration rate of EO9 (as the concentration of PG increases, 347 μM in top chamber, 10 minute intervals over 1 hour): decreases
- metabolites or breakdown products observed (at any of the evaluated time points of the penetration experiment): No obvious metabolites or breakdown products were observed
